Assay results taken from article PMC7216583 (Parasites & Vectors, 2020).
Read-outs that look alike come from different tables or passages of the source.

Columns and labels:
[1] = test system: CHO-hSGLT2; parameters: method as in S-inhibitor catalog; settings: vendor brief description; ref S-inhibitor catalog; cited from earlier work
[2] = test system: CHO-rSGLT2; parameters: method as in S-inhibitor catalog; settings: vendor brief description; ref S-inhibitor catalog; cited from earlier work
[3] = test system: CHO-mSGLT2; parameters: method as in S-inhibitor catalog; settings: vendor brief description; ref S-inhibitor catalog; cited from earlier work
[4] = test system: Toxoplasma gondii RH-2F tachyzoites; experiment: microbe, parasite or virus in culture; settings: 72 h
[5] = in vitro; settings: human, Host viability (%) mean
[6] = target: human c-Met; parameters: method as in S-inhibitor catalog; settings: vendor brief description; ref S-inhibitor catalog; cited from earlier work
[7] = target: mouse c-Met; parameters: method as in S-inhibitor catalog; settings: vendor brief description; ref S-inhibitor catalog; cited from earlier work
[8] = test system: NAMPT; settings: read-out: IC50, NAMPT; vendor brief description; ref S-inhibitor catalog; cited from earlier work
[9] = target: FPTase (H-ras); parameters: method as in S-inhibitor catalog; settings: vendor brief description; ref S-inhibitor catalog; cited from earlier work
[10] = target: FPTase (K-ras-4B); parameters: method as in S-inhibitor catalog; settings: vendor brief description; ref S-inhibitor catalog; cited from earlier work
[11] = target: FPTase (N-ras); parameters: method as in S-inhibitor catalog; settings: vendor brief description; ref S-inhibitor catalog; cited from earlier work
[12] = test system: mutant CETP(C13S); parameters: method as in S-inhibitor catalog; settings: vendor brief description; ref S-inhibitor catalog; cited from earlier work
[13] = test system: rhCETP; parameters: method as in S-inhibitor catalog; settings: vendor brief description; ref S-inhibitor catalog; cited from earlier work
[14] = test system: HDAC2; parameters: method as in S-inhibitor catalog; settings: vendor brief description; ref S-inhibitor catalog; cited from earlier work
[15] = target: integrase (IN); parameters: method as in S-inhibitor catalog; settings: vendor brief description; ref S-inhibitor catalog; cited from earlier work
[16] = test system: INR263K; parameters: method as in S-inhibitor catalog; settings: vendor brief description; ref S-inhibitor catalog; cited from earlier work
[17] = test system: wild-type CRAF; parameters: method as in S-inhibitor catalog; settings: vendor brief description; ref S-inhibitor catalog; cited from earlier work
[18] = test system: BRAFV600E; parameters: method as in S-inhibitor catalog; settings: vendor brief description; ref S-inhibitor catalog; cited from earlier work
[19] = test system: GSK-3ɑ; settings: read-out: IC50, GSK-3ɑ; vendor brief description; ref S-inhibitor catalog; cited from earlier work
[20] = test system: GSK-3β; settings: read-out: IC50, GSK-3β; vendor brief description; ref S-inhibitor catalog; cited from earlier work
[21] = test system: PDGFRα; parameters: method as in S-inhibitor catalog; settings: in PDGFRα over-expressed CHO cells; vendor brief description; ref S-inhibitor catalog; cited from earlier work
[22] = target: PKCθ; parameters: method as in S-inhibitor catalog; settings: vendor brief description; ref S-inhibitor catalog; cited from earlier work
[23] = test system: NaV1.8 channel; parameters: method as in S-inhibitor catalog; settings: vendor brief description; ref S-inhibitor catalog; cited from earlier work
[24] = read-out: Parasite inhibition (%) mean, preliminary screen of compound library, mean

Compound: Cc1ccc([C@@H]2O[C@H](CO)[C@@H](O)[C@H](O)[C@H]2O)cc1Cc1ccc(-c2ccc(F)cc2)s1 [Canagliflozin]
- IC50 [1]: 4.4 nM
- IC50 [2]: 3.7 nM
- IC50 [3]: 2 nM
- inhibition of growth at 5 µM [4, 24]: 0.5%

Compound: COc1ccc2c(Oc3ccc(NC(=O)c4c(C)n(CC(C)(C)O)n(-c5ccccc5)c4=O)nc3)ccnc2c1 [AMG458]
- viability at 72 h [5]: 75.9%
- Ki [6]: 1.2 nM
- Ki [7]: 2 nM
- inhibition of growth at 5 µM [4, 24]: 86.6%

Compound: O=C(/C=C/c1cccnc1)NCCCCC1CCN(C(=O)c2ccccc2)CC1 [APO866 (FK866)]
- inhibition of growth at 5 µM [4, 24]: 10.4%

Compound: NC(=O)N1CCC(CC(=O)N2CCC([C@H]3c4ncc(Br)cc4CCc4cc(Cl)cc(Br)c43)CC2)CC1 [Lonafarnib (SCH66336)]
- IC50 [9]: 1.9 nM
- IC50 [10]: 5.2 nM
- IC50 [11]: 2.8 nM
- inhibition of growth at 5 µM [4, 24]: 0.4%

Compound: COc1cc(F)c(C(C)C)cc1-c1ccc(C(F)(F)F)cc1CN1C(=O)O[C@H](c2cc(C(F)(F)F)cc(C(F)(F)F)c2)[C@H]1C [Anacetrapib (MK-0859)]
- IC50 [12]: 11.8 nM
- inhibition of growth at 5 µM [4, 24]: 22.1%

Compound: CCC(CC)CC1(C(=O)Nc2ccccc2SC(=O)C(C)C)CCCCC1 [Dalcetrapib (JTT-705)]
- IC50 [13]: 200 nM
- inhibition of growth at 5 µM [4, 24]: 0.4%

Compound: COc1ccc(-c2nc(N3CCOCC3)c3sc(CN(C)c4ncc(C(=O)NO)cn4)cc3n2)cn1 [PI3K/HDAC Inhibitor I]
- viability at 72 h [5]: 72.1%
- IC50 [14]: 5 nM
- inhibition of growth at 5 µM [4, 24]: 78.4%

Compound: CCN1C[C@@H](C)n2c(c(O)c3c(=O)n(Cc4ccc(F)c(Cl)c4)nc(C(=O)NC)c32)C1=O [MK-2048]
- IC50 [15]: 2.6 nM
- IC50 [16]: 1.5 nM
- inhibition of growth at 5 µM [4, 24]: 1%

Compound: Cc1ccc(NC(=O)c2cccc(C(C)(C)C#N)c2)cc1Nc1ccc2ncn(C)c(=O)c2c1 [AZ628]
- IC50 [17]: 29 nM
- IC50 [18]: 34 nM
- inhibition of growth at 5 µM [4, 24]: 0.6%

Compound: Nc1nc(NCCNc2ncc(-n3ccnc3)c(-c3ccc(Cl)cc3Cl)n2)ccc1[N+](=O)[O-] [CHIR-98014]
- IC50 [19]: 0.65 nM
- IC50 [20]: 0.58 nM
- inhibition of growth at 5 µM ([4]; read-out: Parasite inhibition (%) mean): 52.4%

Compound: CC1(COc2ccc3c(c2)ncn3-c2ccc3cccc(N4CCC(N)CC4)c3n2)COC1 [Crenolanib (CP-868596)]
- inhibition of growth at 5 µM [4, 24]: 0.2%

Compound: CN1CCN(c2nc(C3=C(c4c[nH]c5ccccc45)C(=O)NC3=O)c3ccccc3n2)CC1 [Sotrastaurin (AEB071)]
- Ki [22]: 0.22 nM
- inhibition of growth at 5 µM [4, 24]: 40.4%

Compound: COc1cc(NC(=O)c2ccc(-c3ccc(Cl)cc3)o2)cc(OC)c1 [A-803467]
- IC50 [23]: 8 nM
- inhibition of growth at 5 µM [4, 24]: 0.3%
